Data taken from PMC9442787, “A Modified Yeast Two-Hybrid Platform Enables Dynamic Control of Expression Intensities to Unmask Properties of Protein–Protein Interactions” (ACS Synthetic Biology, 2022).

Key:
SiGID1b1 = target: T1, SiGID1b1 (Solanum lycopersicum, UniProt A0A3Q7J108); test: adjustable yeast two-hybrid, mScarlet-I fluorescence; assay type: cell-based; conditions: interaction with PROCERA; estradiol/progesterone-titrated expression; 30 °C
T1 construct: gene GID1b-1; receptor fused to GAL4 BD (pBD-pZ-FLAG), PROCERA fused to GAL4 AD (pACT-Lex), in yeast Y190; with DELLA protein GAI (PROCERA)
T1 sequence (A0A3Q7J108 1-345): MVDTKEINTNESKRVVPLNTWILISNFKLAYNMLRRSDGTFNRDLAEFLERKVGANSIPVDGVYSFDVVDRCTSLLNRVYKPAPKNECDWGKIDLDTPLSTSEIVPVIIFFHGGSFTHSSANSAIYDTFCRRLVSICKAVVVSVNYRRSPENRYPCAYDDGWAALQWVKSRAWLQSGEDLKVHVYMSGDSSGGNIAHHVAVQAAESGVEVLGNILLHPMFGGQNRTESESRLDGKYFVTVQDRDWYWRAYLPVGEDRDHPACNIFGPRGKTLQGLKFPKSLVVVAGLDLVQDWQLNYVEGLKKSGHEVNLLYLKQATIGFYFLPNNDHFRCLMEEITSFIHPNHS
T1 sequence (Q7Y1B6 1-588 partner): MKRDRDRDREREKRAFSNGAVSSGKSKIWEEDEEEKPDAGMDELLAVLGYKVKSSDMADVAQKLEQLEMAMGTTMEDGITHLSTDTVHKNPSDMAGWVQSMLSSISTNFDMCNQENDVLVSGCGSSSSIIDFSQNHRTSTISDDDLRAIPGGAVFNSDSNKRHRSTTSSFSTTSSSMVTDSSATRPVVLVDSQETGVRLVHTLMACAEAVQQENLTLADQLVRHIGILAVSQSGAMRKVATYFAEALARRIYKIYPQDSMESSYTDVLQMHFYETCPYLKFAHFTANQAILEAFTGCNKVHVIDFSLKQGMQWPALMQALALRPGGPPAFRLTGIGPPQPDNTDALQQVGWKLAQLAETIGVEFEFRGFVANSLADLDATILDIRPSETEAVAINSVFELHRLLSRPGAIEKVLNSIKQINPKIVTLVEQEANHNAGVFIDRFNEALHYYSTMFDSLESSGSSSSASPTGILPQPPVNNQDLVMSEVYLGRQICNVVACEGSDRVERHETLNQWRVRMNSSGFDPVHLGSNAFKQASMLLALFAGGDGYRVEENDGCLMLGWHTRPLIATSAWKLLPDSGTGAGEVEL

PYL7 = PYL7 (Arabidopsis thaliana, UniProt Q1ECF1); conditions: interaction with PP2C (HAB1 or ABI1 not told); low inducer concentrations; 30 °C
PYL7, sequence (Q1ECF1 whole entry): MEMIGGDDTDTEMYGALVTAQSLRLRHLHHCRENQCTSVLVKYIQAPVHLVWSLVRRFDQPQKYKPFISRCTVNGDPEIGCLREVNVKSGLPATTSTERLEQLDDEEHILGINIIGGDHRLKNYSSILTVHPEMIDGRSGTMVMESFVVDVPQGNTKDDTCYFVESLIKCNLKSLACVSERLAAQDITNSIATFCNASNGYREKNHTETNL
PYL7, sequence (Q9CAJ0 whole entry partner): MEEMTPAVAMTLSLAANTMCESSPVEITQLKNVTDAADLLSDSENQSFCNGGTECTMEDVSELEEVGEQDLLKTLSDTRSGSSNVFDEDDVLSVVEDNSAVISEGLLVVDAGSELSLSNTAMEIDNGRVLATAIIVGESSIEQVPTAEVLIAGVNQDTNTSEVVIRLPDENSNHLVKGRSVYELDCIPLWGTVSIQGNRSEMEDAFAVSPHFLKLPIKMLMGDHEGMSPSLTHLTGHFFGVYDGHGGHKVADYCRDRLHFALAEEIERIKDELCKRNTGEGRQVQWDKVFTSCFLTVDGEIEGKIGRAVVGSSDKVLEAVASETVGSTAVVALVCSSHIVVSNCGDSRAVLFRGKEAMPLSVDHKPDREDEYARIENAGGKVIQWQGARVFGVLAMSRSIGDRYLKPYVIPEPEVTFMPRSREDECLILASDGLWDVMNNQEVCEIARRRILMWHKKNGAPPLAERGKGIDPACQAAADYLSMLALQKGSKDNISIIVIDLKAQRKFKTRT

With C=C1C[C@]23C[C@@]1(O)CC[C@H]2[C@@]12C=C[C@H](O)[C@@](C)(C(=O)O1)[C@H]2[C@@H]3C(=O)O [GA3] the “adjustable yeast two-hybrid, mScarlet-I fluorescence” value (SiGID1b1) was “SiGID1b1 displayed full dependency on GA presence for interaction with SiPROCERA”.

In the case of CC1=CC(=O)CC(C)(C)[C@@]1(O)/C=C/C(C)=C\C(=O)O [abscisic acid], the “maximal ratio of signal with ABA to mock” value (PYL7) is reported as 4.9.
